# Measurements from PubChem BioAssay (NCI).
# “And” between values parts separate entries of the source, which are not always exact repeats. Identical values can stand only once.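 Exposure lasted 48 hours, with cells grown in 96-well plates and compounds tested at five concentrations. Abbreviation: GI50, concentration required for 50% inhibition of growth. At the TGI there is no net growth.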
# Key:
# Test in all cases: growth of human tumour cells (NCI), 48 h
# MCF7 breast = tested on: MCF7 breast
# SK-MEL-5 melanoma = tested on: SK-MEL-5 melanoma
# SK-MEL-28 melanoma = tested on: SK-MEL-28 melanoma
# SNB-75 CNS = tested on: SNB-75 CNS
# UACC-257 melanoma = tested on: UACC-257 melanoma
# ACHN renal = tested on: ACHN renal
# 786-0 renal = tested on: 786-0 renal
# HCC-2998 colon = tested on: HCC-2998 colon
# RXF 393 renal = tested on: RXF 393 renal
# SR leukemia = tested on: SR leukemia
# HOP-62 NSCLC = tested on: HOP-62 NSCLC
SMILES,TGI (MCF7 breast) [µM],TGI (SK-MEL-5 melanoma),TGI (SK-MEL-28 melanoma),TGI (SNB-75 CNS),TGI (UACC-257 melanoma),TGI (ACHN renal),TGI (786-0 renal),TGI (HCC-2998 colon),TGI (RXF 393 renal),GI50 (SK-MEL-5 melanoma),GI50 (SR leukemia),TGI (SR leukemia),GI50 (ACHN renal),TGI (HOP-62 NSCLC)
COc1ccc(NC(=S)c2ccoc2C)cc1CC(=O)OC(C)C,51.5,> 100 µM,> 100 µM,93.9 µM,> 100 µM,> 100 µM,> 100 µM,> 100 µM,,,,,,
COc1cc(C2c3cc4c(cc3[C@@H](NCCN3CCOCC3)C3COC(=O)[C@H]23)OCO4)cc(OC)c1O (some centres undefined),,1.88 µM and 12.7 µM,16.6 µM and > 17.5 µM,1.8 µM and 11.6 µM,32.9 µM and > 17.5 µM,1.34 µM and 2.84 µM,5.11 µM and 7.93 µM,11.5 µM and 7.24 µM,9.33 µM and 10.4 µM,0.877 µM and 2.77 µM,0.0227 µM and 0.0625 µM,11.1 µM and 1.3 µM,0.264 µM and 0.679 µM,2.71 µM and 3.8 µM
O=C(CC(Cl)=C(Cl)Cl)c1ccccc1,> 100,> 100 µM,> 100 µM,> 100 µM,70 µM,> 100 µM,48 µM,,63.8 µM,,,43.7 µM,,> 100 µM
O=C(N/N=C/c1ccccc1)c1cccc2nc3ccccc3nc12,> 100,18 µM,> 100 µM,> 100 µM,> 100 µM,> 100 µM,> 100 µM,,> 100 µM,,,> 100 µM,,> 45.7 µM
Cn1cc(-c2csc(-c3cn(C)c4ccccc34)n2)c2ccccc21,> 100,> 100 µM,> 100 µM,,> 100 µM,> 100 µM,> 100 µM,,54.4 µM,,,,,45.7 µM
Nc1nc(-c2ccco2)cc(-c2ccc(CO)o2)n1,,> 100 µM,> 100 µM,> 100 µM,,> 100 µM,> 100 µM,,> 100 µM,,,> 100 µM,,> 100 µM
COc1ccc(-c2oc3c(OC)c(OC)cc(O)c3c(=O)c2OC)cc1,> 100,> 100 µM,> 100 µM,,> 100 µM,> 100 µM,> 100 µM,> 100 µM,> 100 µM,,,,,> 100 µM
CC(=O)OC(Cc1c(O)c2c(C)cccc2oc1=O)C(C)(C)O (centres undefined),> 100,> 100 µM,> 100 µM,> 100 µM,> 100 µM,> 100 µM,> 100 µM,> 100 µM,,,,> 100 µM,,> 100 µM
CC(=O)Oc1ccc2c3c1O[C@H]1[C@H](O)CC[C@@]4(O)[C@@H](C2)N(C)CC[C@]314,> 100,> 100 µM,> 100 µM,,> 100 µM,> 100 µM,> 100 µM,,,,,> 100 µM,,> 100 µM
CC(Cl)CC(=O)OCC1CCCN2CCCCC12 (centres undefined),> 100,> 100 µM,> 100 µM,> 100 µM,> 100 µM,> 100 µM,> 100 µM,> 100 µM,> 100 µM,,,,,> 100 µM
CC(C)NC(=O)OCc1c2c(n(C)c1COC(=O)NC(C)C)-c1ccccc1CC2,22.4,29.1 µM,26.2 µM,29.4 µM,29.7 µM,,,26.3 µM,27.3 µM,,,,,18.6 µM
O=C1c2ccccc2N2Oc3ccccc3C12c1ccccc1 (centres undefined),,> 100 µM,> 100 µM,> 100 µM,> 100 µM,> 100 µM,> 100 µM,> 100 µM,> 100 µM,,,> 100 µM,,> 100 µM
O=C(NNC(=O)c1csc(NC(=S)NC2CCCCC2)n1)c1ccccc1,> 100,19.7 µM,,> 100 µM,27.8 µM,43.9 µM,31 µM,32.2 µM,,,,> 100 µM,,32.5 µM
C#CC1(O)CCCCCCCCC2(CCCCCCCC1)OCCO2,36.3,33.4 µM,35.1 µM,,39.2 µM,27.3 µM,31.4 µM,29.5 µM,24.5 µM,,,34.3 µM,,44.5 µM
CCOC1CC(C)N(C(=O)c2ccccc2)O1 (centres undefined),> 100,> 100 µM,> 100 µM,,,> 100 µM,> 100 µM,> 100 µM,> 100 µM,,,> 100 µM,,> 100 µM
CCOC(=O)/C=C(/C)Nc1nc2c(c(C(=O)OC)c1C#N)CCCC2,> 100,> 100 µM,> 100 µM,,> 100 µM,> 100 µM,> 100 µM,> 100 µM,> 100 µM,,,> 100 µM,,> 100 µM
c1ccc2c(c1)OC(N1CCCC1)c1cnc(N3CCOCC3)nc1-2 (centres undefined),38.2,,> 100 µM,54.4 µM,74.2 µM,> 100 µM,> 100 µM,,60.4 µM,,,> 100 µM,,> 100 µM
COc1ccccc1C1c2cc3c(cc2OC(N2CCOCC2)C1C)OCO3 (centres undefined),81.5,31.2 µM,32.6 µM,,36.9 µM,> 100 µM,42.2 µM,,,,,52.9 µM,,35.3 µM
CC1(C)N=C(C2CCCN2C(=O)OCc2ccccc2)OC1=O (centres undefined),> 100,> 100 µM,> 100 µM,> 100 µM,> 100 µM,> 100 µM,> 100 µM,> 100 µM,85.1 µM,,,,,> 100 µM
CCOc1cc2c(c(OCC)c1O)CC[C@@H]1[C@@H]2CC[C@]2(C)[C@@H](O)CC[C@@H]12,53.2,21.5 µM,,10.6 µM,,57.4 µM,> 100 µM,,17.1 µM,,,28 µM,,40.5 µM
O=C(Nc1ccc(Cl)cc1)c1cc(S(=O)(=O)Nc2nnc3c(Cl)cc(C(F)(F)F)cn23)c(S)cc1Cl,> 100,> 100 µM,> 100 µM,,> 100 µM,> 100 µM,> 100 µM,> 100 µM,> 100 µM,,,> 100 µM,,> 100 µM
CCOc1ccc(N/C(=C(/C(Cl)=C(/Cl)NC(C)(C)C)[N+](=O)[O-])n2nnc3ccccc32)cc1,65.1,,38.8 µM,54 µM,> 100 µM,> 100 µM,36.7 µM,> 100 µM,41.8 µM,,,,,> 100 µM
COc1cccc(/C=C2\S/C(=N/Nc3nc(-c4ccc([N+](=O)[O-])cc4)cs3)NC2=O)c1O,38.2,25.5 µM,39.5 µM,,71.2 µM,32.3 µM,38.9 µM,33.7 µM,,,,74.9 µM,,34.1 µM

SMILES,TGI (MCF7 breast) [µM],TGI (SK-MEL-5 melanoma),TGI (SK-MEL-28 melanoma),TGI (SNB-75 CNS),TGI (UACC-257 melanoma),TGI (ACHN renal),TGI (786-0 renal),TGI (HCC-2998 colon),TGI (RXF 393 renal),GI50 (SK-MEL-5 melanoma),GI50 (SR leukemia),TGI (SR leukemia),GI50 (ACHN renal),TGI (HOP-62 NSCLC)
O=c1oc2c(Cl)cc(Cl)cc2cc1C1=CSC2=NCCN12,88.9,88.8 µM,> 100 µM,> 100 µM,> 100 µM,> 100 µM,> 100 µM,,> 100 µM,,,> 100 µM,,> 100 µM
O=C(c1ccc(Cl)cc1)N(C(=S)OCCOc1ccccc1)c1ccccc1,32.4,,34.9 µM,,39.5 µM,47.9 µM,40.1 µM,35.2 µM,39.3 µM,,,,,54 µM
CCOC(=O)C(Cl)(NC(=O)OCc1ccccc1)C(F)(F)F (centres undefined),> 100,> 100 µM,> 100 µM,> 100 µM,> 100 µM,> 100 µM,> 100 µM,> 100 µM,> 100 µM,,,,,> 100 µM
CC[C@@]1(O)C(=O)OCc2c1cc1n(c2=O)Cc2c-1nc1ccccc1c2/C=N/NC(=O)c1ccc(N)cc1,> 100,1.1 µM,> 100 µM,,> 100 µM,,5.03 µM,> 69.9 µM,0.22 µM,,,,,1.61 µM
CNC1(C(=O)O)CC1,> 100,> 100 µM,> 100 µM,,> 100 µM,> 100 µM,> 100 µM,> 100 µM,> 100 µM,,,> 100 µM,,> 100 µM
CNc1nc(C(N)=O)c(N)s1,,> 100 µM,> 100 µM,,> 100 µM,> 100 µM,> 100 µM,,> 100 µM,,,,,> 100 µM
Cc1ccc(Nc2nc3c(=O)n(C)c(=O)n(C)c3nc2Nc2ccc(C)cc2)cc1,,31 µM,30.8 µM,35.2 µM,30.5 µM,11.8 µM,18.7 µM,35.1 µM,23.2 µM,,,> 100 µM,,40.9 µM
CC(=O)CC1=C(OC(C)C)C2(OCCO2)C1O (centres undefined),> 100,> 100 µM,> 100 µM,> 100 µM,> 100 µM,> 100 µM,> 100 µM,,> 100 µM,,,,,> 100 µM
Cc1cnc2[nH]c(-c3ccc4ccccc4c3)cc(=O)c2c1,8.68,> 100 µM,> 100 µM,> 100 µM,,> 100 µM,> 100 µM,> 100 µM,,0.359 µM,,,,> 100 µM
CC(C)Oc1c(-c2ccc(F)cc2)c(O)c2c3c1oc(=O)n3C=CC2C (centres undefined),24.3,22.9 µM,30.9 µM,31.3 µM,26.3 µM,27.6 µM,27.8 µM,26.2 µM,27.3 µM,,,,,28.6 µM
Cc1ccc(N(C)S(=O)(=O)c2ccccc2[N+](=O)[O-])cc1,> 100,,> 100 µM,,> 100 µM,> 100 µM,> 100 µM,,> 100 µM,,,> 100 µM,,> 100 µM
O=C1CC(NCc2ccccc2)c2c(Cl)sc(Cl)c21 (centres undefined),50.3,> 100 µM,76.7 µM,80.6 µM,> 63 µM,52.8 µM,57.8 µM,35.7 µM,,,,> 100 µM,,> 88.1 µM
Cc1ccc(N/C(SCc2ccccc2)=C(\C(Cl)=C(Cl)Cl)[N+](=O)[O-])c(C)c1,> 100,,71.6 µM,85.9 µM,> 100 µM,> 100 µM,54.3 µM,> 100 µM,,,,,,> 100 µM
CN1CC2CN(Cc3ccccc3)CCN2c2cccnc21 (centres undefined),> 100,> 100 µM,,> 100 µM,> 100 µM,> 100 µM,> 100 µM,,> 100 µM,,,> 100 µM,,> 100 µM
CCOC(=O)c1nnc2c(C#N)c(-c3ccccc3)c(C)n2c1N,> 100,> 100 µM,73.2 µM,,92.7 µM,> 100 µM,> 100 µM,> 100 µM,> 100 µM,,,> 100 µM,,> 100 µM
CCCCCCCCC/C=C1\CCC(CN(C)C)C1=O (centres undefined),,3.9 µM,4.28 µM,6.28 µM,3.52 µM,4.98 µM,0.963 µM,10.5 µM,,,,6.77 µM,,4.32 µM
CC(C)N(C(C)C)S(=O)(=O)C[C@]12CC[C@H](CC13OCC(CS(=O)(=O)c1ccccc1)O3)C2(C)C (some centres undefined),> 100,> 100 µM,> 100 µM,> 100 µM,> 80.3 µM,> 100 µM,> 100 µM,> 100 µM,> 100 µM,,,,,> 100 µM
c1ccc([I+]c2ccccc2)cc1,> 100,> 100 µM,> 100 µM,,> 100 µM,> 100 µM,> 100 µM,> 100 µM,> 100 µM,,,> 100 µM,,> 100 µM
Cc1ccc2c(/C=C/c3ccc(N(C)C)cc3)ccc(C(C)C)cc1-2,> 100,> 100 µM,> 100 µM,> 100 µM,> 100 µM,> 100 µM,> 100 µM,,> 100 µM,,,> 100 µM,,> 100 µM
N#Cc1c(-c2ccccc2)c(CN2CCCCC2)c(=O)n2c1[nH]c1ccccc12,> 100,34.1 µM,> 100 µM,> 100 µM,> 100 µM,> 100 µM,95.6 µM,> 100 µM,> 100 µM,,,,,91.5 µM
O=c1cc(-c2cccnc2)[nH]c2cc3c(cc12)OCO3,> 100,23.9 µM,> 100 µM,27.1 µM,> 100 µM,> 100 µM,> 100 µM,19.4 µM,> 96.3 µM,,,,,58.8 µM
CC(=O)Nc1cccc(N=NN(C)C)c1,> 100,> 100 µM,> 100 µM,> 100 µM,> 100 µM,,,> 100 µM,> 100 µM,,,,,> 100 µM
Cc1cccc(N/C(Sc2ccccc2)=C(/C(Cl)=C(Cl)Cl)[N+](=O)[O-])c1,91.3,,32.4 µM,68 µM,47.2 µM,74.9 µM,32.9 µM,> 100 µM,,,,,,40.1 µM
